Entries after “also recorded” stand apart in the source; their conditions may differ.
How the values were obtained:
[1] = system: α-glucosidase I; details: N-linked oligosaccharide processing enzyme; cited from earlier work
[2] = system: α-glucosidase II; details: N-linked oligosaccharide processing enzyme; cited from earlier work
[3] = system: mouse hepatitis virus (MHV); details: appearance of E2 on the cell surface is delayed; cited from earlier work
[4] = treatment of chronic hepatitis B; clinical tests suspended; cited from earlier work
[5] = system: HBV infection; details: patients; cited from earlier work
[6] = system: hepatitis B virus (HBV); assay: HBV secretion under tunicamycin; assay type: cell-based; details: found by the present inventors
[7] = system: N-linked glycosylation of proteins; details: cited from earlier work
[8] = system: hepatitis B virus (HBV); details: previously reported; cited from earlier work
[9] = system: cells; details: cited from earlier work

OC[C@H]1NC[C@H](O)[C@@H](O)[C@@H]1O [DNJ, 1,5-Dideoxy-1,5-imino-D-glucitol, reference compound]
inhibition of α-glucosidase I (in words) [1]: known inhibitors | inhibition of α-glucosidase II (in words) [2]: known inhibitors

CN1C[C@H](O)[C@@H](O)[C@H](O)[C@H]1CO [N-methyl deoxynojirimycin]
formation of mouse hepatitis virus (in words) [3]: inhibit the formation of mouse hepatitis virus (MHV)

O=c1[nH]c(=O)n([C@@H]2O[C@H](CO)[C@@H](O)[C@@H]2F)cc1I [fialuridine]
drug-related liver failure in patients [4]: six of 20 patients

Alpha interferon
treatment of HBV infection (in words) [5]: promising results in some patients

tunicamycin
secretion of subviral particles (in words) ([6]; subviral particles): not subviral particles is inhibited | secretion of HBV virions (in words) ([6]; virions): inhibited | N-linked glycosylation of proteins (in words) [7]: complete inhibition | HBV secretion from HBV infected or HBV-producing cells (in words) [8]: no significant reduction of HBV secretion; also recorded: normal HBV particle secretion | toxicity to cells (in words) [9]: very toxic to cells
